Measured values reported in US9512107B2, “Therapeutically active compositions and their methods of use” (Agios Pharmaceuticals, Inc., priority 2012, dated 2016).
Substitutions are numbered along the chain they refer to.

Experiments:
IDH2 R172K = target: T1, IDH2 R172K (Homo sapiens, UniProt P48735, R172K); assay: IDH2 R172K enzymatic assay (NADPH cofactor depletion, diaphorase/resazurin readout); type: biochemical; conditions: read-out: Enz R172K
T1 sequence (P48735 40-452 R172K): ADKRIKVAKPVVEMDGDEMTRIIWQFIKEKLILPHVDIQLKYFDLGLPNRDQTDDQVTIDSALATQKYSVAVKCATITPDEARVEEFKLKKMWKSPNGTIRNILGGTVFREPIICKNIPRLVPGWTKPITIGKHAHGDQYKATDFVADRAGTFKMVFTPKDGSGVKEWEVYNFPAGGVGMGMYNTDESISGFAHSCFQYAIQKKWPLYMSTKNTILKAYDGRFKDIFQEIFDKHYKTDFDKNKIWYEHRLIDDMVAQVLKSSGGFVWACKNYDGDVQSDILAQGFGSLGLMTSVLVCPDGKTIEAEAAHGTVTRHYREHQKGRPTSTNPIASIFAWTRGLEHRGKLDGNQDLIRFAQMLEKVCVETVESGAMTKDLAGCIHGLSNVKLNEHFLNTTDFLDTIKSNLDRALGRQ
Summary of the method: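 Residual NADPH is read out as resorufin fluorescence after quenching with 36 μg/ml diaphorase and 60 μM resazurin in stop mix. The stop follows a 1 h room-temperature reaction started by a substrate mix of NADPH (50 μM) and α-KG (6.3 mM), with compound preincubated with enzyme for 1 h beforehand.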

IDH2 R140Q = target: T2, IDH2 R140Q (Homo sapiens, UniProt P48735, R140Q); assay: IDH2 R140Q enzymatic assay (cofactor depletion, similar format); type: biochemical; conditions: read-out: Enz R140Q
T2 sequence (P48735 40-452 R140Q): T1 sequence (P48735 40-452 R172K) with R101Q, K133R

[1] = tested on: U87MG pLVX-IDH2 R140Q-neo cells; assay: U87MG pLVX-IDH2 R140Q-neo cell based assay, 2-HG in media by LC-MS at 48 hours; conditions: Homo sapiens, U-87 MG
Summary of the method: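 2-HG secreted into the medium was measured by LC-MS after 48 h of compound treatment (0.2% DMSO final) of U87MG pLVX-IDH2 R140Q-neo cells in DMEM/10% FBS. The same wells were assayed at 72 h by CellTiter-Glo luminescence for effects on growth.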

Structure (SMILES) | IC50 (IDH2 R172K) | IC50 (IDH2 R140Q) | IC50 [1]
CC(C)Nc1nc(Nc2cccc(S(C)(=O)=O)c2)nc(-c2cccc(C(F)(F)F)n2)n1 [Compound 358, N^2-isopropyl-N^4-(3-(methylsulfonyl)phenyl)-6-(6-(trifluoromethyl)pyridin-2-yl)-1,3,5-triazine-2,4-diamine] | 100 to 1000 nM | 100 to 1000 nM | < 100 nM
FC(F)(F)c1cccc(-c2nc(Nc3cnoc3)nc(NC3COC3)n2)n1 [Compound 337, N^2-(isoxazol-4-yl)-N^4-(oxetan-3-yl)-6-(6-(trifluoromethyl)pyridin-2-yl)-1,3,5-triazine-2,4-diamine] | 1000 to 10000 nM | 100 to 1000 nM | 100 to 1000 nM
COc1ccc(F)c(-c2nc(Nc3ccnc(C(F)(F)F)c3)nc(NC(C)C)n2)c1 [Compound 630, 6-(2-Fluoro-5-methoxy-phenyl)-N-isopropyl-N′-(2-trifluoromethyl-pyridin-4-yl)-[1,3,5]triazine-2,4-diamine] | < 100 nM | < 100 nM | < 100 nM
CC(C)(C)CNc1nc(Nc2ccnc(C(F)(F)F)c2)nc(-c2nccc(C(F)(F)F)n2)n1 [Compound 523, N2-neopentyl-N4-(2-(trifluoromethyl)pyridin-4-yl)-6-(4-(trifluoromethyl)pyrimidin-2-yl)-1,3,5-triazine-2,4-diamine] | < 100 nM | 100 to 1000 nM | < 100 nM
CC(C)Nc1nc(Nc2cc(F)cc(F)c2)nc(-c2nccc(C(F)(F)F)n2)n1 [Compound 455, N-(3,5-Difluoro-phenyl)-N′-isopropyl-6-(4-trifluoromethyl-pyrimidin-2-yl)-[1,3,5]triazine-2,4-diamine] | < 100 nM | 100 to 1000 nM | < 100 nM
CC(C)Nc1nc(Nc2cccc(S(C)(=O)=O)c2)nc(-c2c(F)cccc2F)n1 [Compound 466, 6-(2,6-difluorophenyl)-N2-isopropyl-N4-(3-(methylsulfonyl)phenyl)-1,3,5-triazine-2,4-diamine] | 100 to 1000 nM | 100 to 1000 nM | < 100 nM
CCNc1nc(Nc2ccncc2)nc(-c2ccccc2)n1 [Compound 248, N^2-ethyl-6-phenyl-N^4-(pyridin-4-yl)-1,3,5-triazine-2,4-diamine] | 1000 to 10000 nM | < 100 nM | 100 to 1000 nM
CC1CC1Nc1nc(Nc2ccnc(C(F)(F)F)c2)nc(-c2cccc(C(F)(F)F)n2)n1 (stereo not drawn) [Compound 532, N-(2-Methyl-cyclopropyl)-6-(6-trifluoromethyl-pyridin-2-yl)-N′-(2-trifluoromethyl-pyridin-4-yl)-[1,3,5]triazine-2,4-diamine] | < 100 nM | 100 to 1000 nM | < 100 nM
CC(C)Nc1nc(Nc2ccc(F)nc2)nc(-c2nccc(C(F)(F)F)n2)n1 [Compound 535, N-(6-Fluoro-pyridin-3-yl)-N′-isopropyl-6-(4-trifluoromethyl-pyrimidin-2-yl)-[1,3,5]triazine-2,4-diamine] | 100 to 1000 nM | 100 to 1000 nM | < 100 nM
CS(=O)(=O)c1cc(F)cc(Nc2nc(NCC3CC3)nc(-c3cccc(C(F)(F)F)n3)n2)c1 [Compound 593, N-Cyclopropylmethyl-N′-(3-fluoro-5-methanesulfonyl-phenyl)-6-(6-trifluoromethyl-pyridin-2-yl)-[1,3,5]triazine-2,4-diamine] | < 100 nM | 100 to 1000 nM | < 100 nM
CC1(C(=O)Nc2nc(Nc3ccccc3)nc(-c3ccccc3)n2)CC1 [Compound 245] | 100 to 1000 nM | < 100 nM | 100 to 1000 nM

Other lines, results leading:

IC50 (IDH2 R172K) | IC50 (IDH2 R140Q) | IC50 [1] | Structure (SMILES)
< 100 nM | 100 to 1000 nM | < 100 nM | CC(C)(O)CNc1nc(Nc2ccnc(C(F)(F)F)c2)nc(-c2cccc(O)c2)n1 [Compound 641, 3-(4-((2-hydroxy-2-methylpropyl)amino)-6-((2-(trifluoromethyl)pyridin-4-yl)amino)-1,3,5-triazin-2-yl)phenol]
100 to 1000 nM | < 100 nM | < 100 nM | COc1ccccc1-c1nc(Nc2ccccc2)nc(NC(C)C)n1 [Compound 120]
< 100 nM | 100 to 1000 nM | < 100 nM | CC(C)Nc1nc(Nc2ccnc(C(F)(F)F)c2)nc(-c2cccc(C(F)(F)F)n2)n1 [Compound 335, N^2-isopropyl-6-(6-(trifluoromethyl)pyridin-2-yl)-N^4-(2-(trifluoromethyl)pyridin-4-yl)-1,3,5-triazine-2,4-diamine]
100 to 1000 nM | 100 to 1000 nM | 100 to 1000 nM | CC(C)(C)OC(=O)N1CCC(Nc2nc(Nc3ccccc3)nc(-c3ccccc3)n2)CC1 [Compound 667, 4-(4-Phenyl-6-phenylamino-[1,3,5]triazin-2-ylamino)-piperidine-1-carboxylic acid tert-butyl ester]
1000 to 10000 nM | < 100 nM | 100 to 1000 nM | FC(F)(F)CNc1nc(Nc2ccncc2)nc(-c2ccccc2)n1 [Compound 215, 6-phenyl-N^2-(pyridin-4-yl)-N^4-(2,2,2-trifluoroethyl)-1,3,5-triazine-2,4-diamine]
100 to 1000 nM | 100 to 1000 nM | 1000 to 10000 nM | CC(C)Nc1nc(NC(=O)Cc2ccccc2)nc(-c2ccccc2)n1 [Compound 170]
100 to 1000 nM | < 100 nM | < 100 nM | CC(C)Nc1nc(Nc2ccc(F)cc2)nc(-c2ccccc2)n1 [Compound 132]
100 to 1000 nM | 100 to 1000 nM | < 100 nM | CC(C)(O)CNc1nc(Nc2ccnc(C(C)(F)F)c2)nc(-c2cccc(C(C)(F)F)n2)n1 [Compound 605, 1-((4-(6-(1,1-difluoroethyl)pyridin-2-yl)-6-((2-(1,1-difluoroethyl)pyridin-4-yl)amino)-1,3,5-triazin-2-yl)amino)-2-methylpropan-2-ol]
< 100 nM | 100 to 1000 nM | < 100 nM | CC(C)(CO)Nc1nc(Nc2ccnc(C(F)(F)F)c2)nc(-c2cccc(C(F)(F)F)n2)n1 [Compound 562, 2-Methyl-2-[4-(6-trifluoromethyl-pyridin-2-yl)-6-(2-trifluoromethyl-pyridin-4-ylamino)-[1,3,5]triazin-2-ylamino]-propan-1-ol]
100 to 1000 nM | 100 to 1000 nM | < 100 nM | CC(C)(O)CNc1nc(Nc2ccnc(C(F)(F)F)c2)nc(-c2cccc(C(C)(F)F)n2)n1 [Compound 594, 1-((4-(6-(1,1-difluoroethyl)pyridin-2-yl)-6-((2-(trifluoromethyl)pyridin-4-yl)amino)-1,3,5-triazin-2-yl)amino)-2-methylpropan-2-ol]
1000 to 10000 nM | < 100 nM | 100 to 1000 nM | O[C@@H]1CC[C@@H](Nc2nc(Nc3ccccc3)nc(-c3ccccc3)n2)C1 [Compound 267, (1R,3R)-3-(4-phenyl-6-(phenylamino)-1,3,5-triazin-2-ylamino)cyclopentanol]
100 to 1000 nM | 1000 to 10000 nM | < 100 nM | CC(C)Nc1nc(Nc2cncc(C(F)(F)F)c2)nc(-c2nccc(C(F)(F)F)n2)n1 [Compound 536, N-Isopropyl-N′-(5-trifluoromethyl-pyridin-3-yl)-6-(4-trifluoromethyl-pyrimidin-2-yl)-[1,3,5]triazine-2,4-diamine]
1000 to 10000 nM | 100 to 1000 nM | 100 to 1000 nM | CC(C)Nc1nc(Nc2ccccc2)nc(-c2ccncc2)n1 [Compound 156]
